For 34 molecules, IC50 results are on record in patent US9156845B2, “4-(substituted amino)-7H-pyrrolo[2,3-d] pyrimidines as LRRK2 inhibitors” (Pfizer Inc., priority 2012, dated 2015).

Assay [1] deals with GST-tagged truncated LRRK2 (Homo sapiens (Human), UniProt Q5S007). As to the kind of experiment: LRRK2 Lantha Screen kinase assay. The following applies: geometric mean of 2-5 determinations unless otherwise indicated (a: >=6 determinations; b: single determination); read-out: LRRK2 WT IC50. In kind it is biochemical.
GST-tagged truncated LRRK2, sequence (Q5S007 970-2527): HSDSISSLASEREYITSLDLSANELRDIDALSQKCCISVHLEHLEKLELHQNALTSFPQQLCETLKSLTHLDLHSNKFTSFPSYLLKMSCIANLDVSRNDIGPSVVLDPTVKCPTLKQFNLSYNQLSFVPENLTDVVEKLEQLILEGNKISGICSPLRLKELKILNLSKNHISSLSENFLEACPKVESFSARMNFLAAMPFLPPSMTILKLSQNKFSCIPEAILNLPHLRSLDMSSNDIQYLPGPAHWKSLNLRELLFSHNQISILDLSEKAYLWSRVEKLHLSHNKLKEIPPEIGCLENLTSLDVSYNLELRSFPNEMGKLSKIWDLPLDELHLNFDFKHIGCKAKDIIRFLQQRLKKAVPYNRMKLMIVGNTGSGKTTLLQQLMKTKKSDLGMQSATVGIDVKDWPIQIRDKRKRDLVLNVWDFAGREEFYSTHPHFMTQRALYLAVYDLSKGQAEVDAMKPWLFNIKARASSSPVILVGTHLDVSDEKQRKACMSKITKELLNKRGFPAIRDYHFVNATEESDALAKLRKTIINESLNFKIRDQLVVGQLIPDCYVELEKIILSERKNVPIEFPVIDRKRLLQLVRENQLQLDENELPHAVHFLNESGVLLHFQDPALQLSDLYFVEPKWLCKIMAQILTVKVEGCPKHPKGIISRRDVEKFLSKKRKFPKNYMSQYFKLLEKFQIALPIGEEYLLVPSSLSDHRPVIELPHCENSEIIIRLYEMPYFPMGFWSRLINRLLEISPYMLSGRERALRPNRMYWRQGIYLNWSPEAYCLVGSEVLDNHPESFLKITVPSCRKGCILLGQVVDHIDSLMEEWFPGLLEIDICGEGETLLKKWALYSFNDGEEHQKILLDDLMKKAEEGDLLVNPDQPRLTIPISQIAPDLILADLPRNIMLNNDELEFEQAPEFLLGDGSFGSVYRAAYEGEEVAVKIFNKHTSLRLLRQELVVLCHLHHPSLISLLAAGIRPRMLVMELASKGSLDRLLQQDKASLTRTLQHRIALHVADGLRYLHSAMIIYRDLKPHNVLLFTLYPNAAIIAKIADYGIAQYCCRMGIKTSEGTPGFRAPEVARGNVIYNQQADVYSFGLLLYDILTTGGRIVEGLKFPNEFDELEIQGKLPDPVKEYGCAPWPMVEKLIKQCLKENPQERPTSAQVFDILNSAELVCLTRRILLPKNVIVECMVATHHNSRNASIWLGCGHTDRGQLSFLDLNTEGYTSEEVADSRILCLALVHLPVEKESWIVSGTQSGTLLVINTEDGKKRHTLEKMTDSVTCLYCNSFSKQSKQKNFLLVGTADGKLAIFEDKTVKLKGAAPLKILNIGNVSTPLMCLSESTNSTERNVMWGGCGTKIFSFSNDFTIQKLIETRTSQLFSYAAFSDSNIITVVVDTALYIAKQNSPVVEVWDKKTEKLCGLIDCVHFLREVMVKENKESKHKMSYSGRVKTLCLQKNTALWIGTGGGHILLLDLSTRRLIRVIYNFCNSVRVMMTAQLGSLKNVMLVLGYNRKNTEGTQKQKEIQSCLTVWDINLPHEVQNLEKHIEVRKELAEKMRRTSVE
Method: LRRK2 kinase activity was measured using Lantha Screen technology from Invitrogen. GST-tagged truncated LRRK2 from Invitrogen (Cat # PV4874) was incubated with a fluorescein-labeled peptide substrate based upon ezrin/radixin/moesin (ERM), also known as LRRKtide (Invitrogen cat #PR8976A), in the presence of a dose response of compound. Upon completion, the assay was stopped and detected with a terbium labeled anti-phospho-ERM antibody (Invitrogen, cat #PR8975A). […] Aliquots (3.5 μL) of the 100% DMSO dose response were mixed with 46.5 μL water then 1 μL of this mixture was added to the 3 μL substrate mix in the 384-well plate. The kinase reaction was started with 3 μL of a working solution of LRRK2 enzyme at a concentration of 4 μg/mL. […] The reaction was allowed to progress at room temperature for two hours and then stopped with the addition of 7 μL of detection buffer (20 mM Tris pH 7.6, 0.01% NP-40, 0.02% NaN3, 6 mM EDTA with 2 nM terbium labeled anti-phospho-ERM).
The target of assay [2] is mutant G2019S LRRK2 (Homo sapiens (Human), UniProt Q5S007, G2019S). As to the kind of experiment: LRRK2 Lantha Screen kinase assay, mutant enzyme. The format is biochemical. To be noted: geometric mean of 2-5 determinations unless otherwise indicated (a: >=6 determinations; b: single determination).
mutant G2019S LRRK2, sequence (Q5S007 970-2527 G2019S): as the sequence (Q5S007 970-2527) above, with G1050S counted along it

As to `N#Cc1cccc(-c2c[nH]c3ncnc(N4CCOC(c5ccncn5)C4)c23)c1` (centres unmarked) [Example 141, 3-{4-[2-(pyrimidin-4-yl)morpholin-4-yl]-7H-pyrrolo[2,3-d]pyrimidin-5-yl}benzonitrile], the half-inhibitory concentration (IC50) came to 79 nM in assay [1] and 193 nM in assay [2].

Regarding `N#Cc1cccc(-c2c[nH]c3ncnc(N4CCOC(c5nc(C6CC6)no5)C4)c23)c1` (centres unmarked) [Example 142, 3-{4-[2-(3-cyclopropyl-1,2,4-oxadiazol-5-yl)morpholin-4-yl]-7H-pyrrolo[2,3-d]pyrimidin-5-yl}benzonitrile], the IC50 in assay [1] is 30 nM; in assay [2] it was 84 nM.

As to `CN(C)CC1CN(c2ncnc3[nH]cc(-c4cccc(C#N)c4)c23)CCO1` (centres unmarked) [Example 143, 3-(4-{2-[(dimethylamino)methyl]morpholin-4-yl}-7H-pyrrolo[2,3-d]pyrimidin-5-yl)benzonitrile], the IC50 is 45 nM in assay [1] and 110 nM in assay [2].

For the molecule `N#Cc1cccc(-c2c[nH]c3ncnc(Nc4cn[nH]c4)c23)c1` [Example 144, 3-[4-(1H-pyrazol-4-ylamino)-7H-pyrrolo[2,3-d]pyrimidin-5-yl]benzonitrile], the values for the IC50 in assay [1] and in assay [2] were 69 nM and 36 nM, respectively.

As for `Cc1nc(CC2CN(c3ncnc4[nH]cc(-c5cccc(C#N)c5)c34)CCO2)no1` (centres unmarked) [Example 145, 3-(4-{2-[(5-methyl-1,2,4-oxadiazol-3-yl)methyl]morpholin-4-yl}-7H-pyrrolo[2,3-d]pyrimidin-5-yl)benzonitrile], the figures for the IC50 in assay [1] and in assay [2] were 55 nM and 155 nM, respectively.

With `Cc1nnc(C2CCCN(c3ncnc4[nH]cc(-c5cccc(C#N)c5)c34)C2)o1` (centres unmarked) [Example 146, 3-{4-[3-(5-methyl-1,3,4-oxadiazol-2-yl)piperidin-1-yl]-7H-pyrrolo[2,3-d]pyrimidin-5-yl}benzonitrile], the figures for the IC50 in assay [1] and in assay [2] were 96 nM and 217 nM, respectively.

For `COc1cc(C#N)cc(-c2c[nH]c3ncnc(N(C)C)c23)c1` [Example 147, 3-[4-(dimethylamino)-7H-pyrrolo[2,3-d]pyrimidin-5-yl]-5-methoxybenzonitrile], the concentration for half-maximal inhibition (IC50) amounted to 37 nM in assay [1] and 93 nM in assay [2].

For `CCn1cc(-c2c[nH]c3ncnc(N4CCOCC4)c23)cn1` [Example 148, 5-(1-ethyl-1H-pyrazol-4-yl)-4-(morpholin-4-yl)-7H-pyrrolo[2,3-d]pyrimidine], the results for the IC50 in assay [1] and in assay [2] were 77 nM and 92 nM, respectively.

As for `Cc1cncc(-c2c[nH]c3ncnc(N4CCOCC4)c23)c1` [Example 149, 5-(5-methylpyridin-3-yl)-4-(morpholin-4-yl)-7H-pyrrolo[2,3-d]pyrimidine], the IC50 is 18 nM in assay [1] and 30 nM in assay [2].

Regarding `Clc1cncc(-c2c[nH]c3ncnc(N4CCOCC4)c23)c1` [Example 150, 5-(5-chloropyridin-3-yl)-4-(morpholin-4-yl)-7H-pyrrolo[2,3-d]pyrimidine], the values for the concentration for half-maximal inhibition (IC50) in assay [1] and in assay [2] were 28 nM and 36 nM, respectively.

Consider `COc1cncc(-c2c[nH]c3ncnc(N4CCOCC4)c23)n1` [Example 151, 5-(6-methoxypyrazin-2-yl)-4-(morpholin-4-yl)-7H-pyrrolo[2,3-d]pyrimidine], for which the IC50 in assay [1] was determined as 32 nM; in assay [2], 37 nM.

On to `Cc1nn(C)cc1-c1c[nH]c2ncnc(N3CCOCC3)c12` [Example 152, 5-(1,3-dimethyl-1H-pyrazol-4-yl)-4-(morpholin-4-yl)-7H-pyrrolo[2,3-d]pyrimidine], for which the IC50 was 60 nM in assay [1] and 91 nM in assay [2].

Regarding `C[C@H]1COCCN1c1ncnc2[nH]cc(-c3cccc(C#N)c3)c12` [Example 153, 3-{4-[(3S)-3-methylmorpholin-4-yl]-7H-pyrrolo[2,3-d]pyrimidin-5-yl}benzonitrile], the values for the IC50 in assay [1] and in assay [2] were 44 nM and 165 nM, respectively.

Take `Cc1nc(N2CCOCC2)c2c(-c3cccc(C#N)c3F)c[nH]c2n1` [Example 154, 2-fluoro-3-[2-methyl-4-(morpholin-4-yl)-7H-pyrrolo[2,3-d]pyrimidin-5-yl]benzonitrile]: the half-maximal inhibitory concentration (IC50) in assay [1] came to 30 nM; in assay [2], 365 nM.

Take `N#Cc1cccc(-c2c[nH]c3ncnc(N4CCC[C@@H](O)C4)c23)c1` [Example 155, 3-{4-[(3R)-3-hydroxypiperidin-1-yl]-7H-pyrrolo[2,3-d]pyrimidin-5-yl}benzonitrile]: the IC50 in assay [1] was found to be 8 nM; in assay [2] it was 37 nM.

In the case of `OC1CCCN(c2ncnc3[nH]cc(-c4cccc(F)c4)c23)C1` (centres unmarked) [Example 156, 1-[5-(3-fluorophenyl)-7H-pyrrolo[2,3-d]pyrimidin-4-yl]piperidin-3-ol], the half-maximal inhibitory concentration (IC50) in assay [1] came to 57 nM; in assay [2], 86 nM.

`COc1ccc(F)cc1-c1c[nH]c2ncnc(N3CCOC(c4noc(C)n4)C3)c12` (centres unmarked) [Example 157, 5-(5-fluoro-2-methoxyphenyl)-4-[2-(5-methyl-1,2,4-oxadiazol-3-yl)morpholin-4-yl]-7H-pyrrolo[2,3-d]pyrimidine]: the half-maximal inhibitory concentration (IC50) in assay [1] is 44 nM; in assay [2], 46 nM.

On to `N#Cc1cccc(-c2c[nH]c3ncnc(N4CCC(F)CC4)c23)c1F` [Example 158, 2-fluoro-3-[4-(4-fluoropiperidin-1-yl)-7H-pyrrolo[2,3-d]pyrimidin-5-yl]benzonitrile], for which the IC50 was 18 nM in assay [1] and 86 nM in assay [2].

In the case of `COc1ccccc1-c1c[nH]c2ncnc(N3CCC(F)CC3)c12` [Example 159, 4-(4-fluoropiperidin-1-yl)-5-(2-methoxyphenyl)-7H-pyrrolo[2,3-d]pyrimidine], the figures for the IC50 in assay [1] and in assay [2] were 67 nM and 74 nM, respectively.

Take `COc1cc(F)cc(-c2c[nH]c3ncnc(N4CCC(F)CC4)c23)c1` [Example 160, 5-(3-fluoro-5-methoxyphenyl)-4-(4-fluoropiperidin-1-yl)-7H-pyrrolo[2,3-d]pyrimidine]: the results for the IC50 in assay [1] and in assay [2] were 84 nM and 96 nM, respectively.

For the molecule `Cc1cncc(-c2c[nH]c3ncnc(N4CCCC(O)C4)c23)c1` (centres unmarked) [Example 162, 1-[5-(5-methylpyridin-3-yl)-7H-pyrrolo[2,3-d]pyrimidin-4-yl]piperidin-3-ol], the IC50 in assay [1] was 36 nM; in assay [2], 67 nM.

As for `COc1ccc(F)cc1-c1c[nH]c2ncnc(N3CCC(F)CC3)c12` [Example 163, 5-(5-fluoro-2-methoxyphenyl)-4-(4-fluoropiperidin-1-yl)-7H-pyrrolo[2,3-d]pyrimidine], the values for the IC50 in assay [1] and in assay [2] were 25 nM and 29 nM, respectively.

As for `COc1cc(F)cc(-c2c[nH]c3ncnc(N4CCCC(O)C4)c23)c1` (centres unmarked) [Example 164, 1-[5-(3-fluoro-5-methoxyphenyl)-7H-pyrrolo[2,3-d]pyrimidin-4-yl]piperidin-3-ol], the IC50 in assay [1] is 29 nM; in assay [2], 38 nM.

As for `COc1ccccc1-c1c[nH]c2ncnc(N3CCCC(O)C3)c12` (centres unmarked) [Example 165, 1-[5-(2-methoxyphenyl)-7H-pyrrolo[2,3-d]pyrimidin-4-yl]piperidin-3-ol], the concentration for half-maximal inhibition (IC50) in assay [1] was 58 nM; in assay [2], 62 nM.

Take `Cc1noc(C2CN(c3ncnc4[nH]cc(-c5cccc(C#N)c5F)c34)CCO2)n1` (centres unmarked) [Example 166, 2-fluoro-3-{4-[2-(3-methyl-1,2,4-oxadiazol-5-yl)morpholin-4-yl]-7H-pyrrolo[2,3-d]pyrimidin-5-yl}benzonitrile]: the IC50 came to 38 nM in assay [1] and 272 nM in assay [2].

Turning to `COCC1CN(c2ncnc3[nH]cc(-c4cccc(C#N)c4F)c23)CCO1` (centres unmarked) [Example 167, 2-fluoro-3-{4-[2-(methoxymethyl)morpholin-4-yl]-7H-pyrrolo[2,3-d]pyrimidin-5-yl}benzonitrile], the IC50 is 61 nM in assay [1] and 372 nM in assay [2].

For `COc1ccc(F)cc1-c1c[nH]c2ncnc(N3CCC3)c12` [Example 168, 4-(azetidin-1-yl)-5-(5-fluoro-2-methoxyphenyl)-7H-pyrrolo[2,3-d]pyrimidine], the half-maximal inhibitory concentration (IC50) in assay [1] was determined as 85 nM; in assay [2], 75 nM.

Regarding `Cc1cncc(-c2c[nH]c3ncnc(N4CCO[C@@H](C)C4)c23)c1` [Example 169, 4-[(2S)-2-methylmorpholin-4-yl]-5-(5-methylpyridin-3-yl)-7H-pyrrolo[2,3-d]pyrimidin], the values for the half-inhibitory concentration (IC50) in assay [1] and in assay [2] were 99 nM and 280 nM, respectively.

Take `COc1ccccc1-c1c[nH]c2ncnc(N(C)C)c12` [Example 173, 5-(2-methoxyphenyl)-N,N-dimethyl-7H-pyrrolo[2,3-d]pyrimidin-4-amine]: the concentration for half-maximal inhibition (IC50) in assay [1] is 43 nM; in assay [2], 29 nM.

On to `COc1ccccc1-c1c[nH]c2ncnc(N3CC[C@H](F)C3)c12` [Example 175, 4-[(3S)-3-fluoropyrrolidin-1-yl]-5-(2-methoxyphenyl)-7H-pyrrolo[2,3-d]pyrimidine], for which the IC50 in assay [1] amounted to 41 nM; in assay [2] it was 54 nM.

As to `COc1ccccc1-c1c[nH]c2ncnc(N3CCCC3)c12` [Example 176, 5-(2-methoxyphenyl)-4-(pyrrolidin-1-yl)-7H-pyrrolo[2,3-d]pyrimidine], the IC50 in assay [1] was found to be 54 nM; in assay [2], 68 nM.

For `COc1cc(F)cc(-c2c[nH]c3ncnc(N(C)C)c23)c1` [Example 177, 5-(3-fluoro-5-methoxyphenyl)-N,N-dimethyl-7H-pyrrolo[2,3-d]pyrimidin-4-amine], the IC50 was determined as 41 nM in assay [1] and 49 nM in assay [2].

As for `N#Cc1cccc(-c2c[nH]c3ncnc(N4CCCC(O)C4)c23)c1F` (centres unmarked) [Example 178, 2-fluoro-3-[4-(3-hydroxypiperidin-1-yl)-7H-pyrrolo[2,3-d]pyrimidin-5-yl]benzonitrile], the concentration for half-maximal inhibition (IC50) turned out to be 9 nM in assay [1] and 42 nM in assay [2].

Regarding `COc1ccc(F)cc1-c1c[nH]c2ncnc(N3CCO[C@@H](C)C3)c12` [Example 179, 5-(5-fluoro-2-methoxyphenyl)-4-[(2S)-2-methylmorpholin-4-yl]-7H-pyrrolo[2,3-d]pyrimidine], the figures for the IC50 in assay [1] and in assay [2] were 19 nM and 30 nM, respectively.
